Reference: the NIST ThermoML archive (doi:10.1021/je400065j)
Numbers after ± are expanded uncertainties.

Legend:
[1] = Liquid, Closed cell (Static) method
[2] = refractive index (Na D-line) (dimensionless); conditions: 293.15 K; 101.33 kPa; Liquid; Standard Abbe refractometry

Row | Structure (SMILES) | vapor or sublimation pressure ([1]; 383.3 K) | vapor or sublimation pressure ([1]; 398.1 K) | vapor or sublimation pressure ([1]; 398.2 K) | vapor or sublimation pressure ([1]; 413.2 K) | refractive index [2]
1 | CCC(C)=O [butanone] | 245.6 ± 1.3 kPa | 358.5 ± 1.5 kPa | 358.5 ± 1.5 kPa | 506.6 ± 1.9 kPa | 1.3788 ± 0.0007
2 | CCO [ethanol] | 315.6 ± 1.7 kPa | – | 498.3 ± 2.2 kPa | 757 ± 3 kPa | 1.3618 ± 0.0007
3 | CO [methanol] | 480.7 ± 2.3 kPa | 733.7 ± 3.1 kPa | – | 1086 ± 4.1 kPa | 1.3287 ± 0.0007
